In PubChem BioAssay AID504559 (Johns Hopkins Ion Channel Center, 2011):
Calls of active or inactive are those of the source.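 How the source made its calls: active means dose-dependent block of Kir2.1 potassium channel current at -100 mV within the tested dose range; inactive means no dose-dependent block of that current.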

Molecular target: Inward rectifier potassium channel 2 (Mus musculus) (UniProt P35561)
Experiment: blockers of mouse Kir2.1 inward rectifier current – cell-based, IonWorks automated patch clamp, -100 mV, SAR follow-up (AID 504559)
Details: Kir2.1 cell line, IonWorks patch clamp current at -100 mV; for current change, negative = inhibition: at 30 µM (top of the series)

Inward rectifier potassium channel 2 (Mus musculus), sequence (P35561 whole entry, looked up): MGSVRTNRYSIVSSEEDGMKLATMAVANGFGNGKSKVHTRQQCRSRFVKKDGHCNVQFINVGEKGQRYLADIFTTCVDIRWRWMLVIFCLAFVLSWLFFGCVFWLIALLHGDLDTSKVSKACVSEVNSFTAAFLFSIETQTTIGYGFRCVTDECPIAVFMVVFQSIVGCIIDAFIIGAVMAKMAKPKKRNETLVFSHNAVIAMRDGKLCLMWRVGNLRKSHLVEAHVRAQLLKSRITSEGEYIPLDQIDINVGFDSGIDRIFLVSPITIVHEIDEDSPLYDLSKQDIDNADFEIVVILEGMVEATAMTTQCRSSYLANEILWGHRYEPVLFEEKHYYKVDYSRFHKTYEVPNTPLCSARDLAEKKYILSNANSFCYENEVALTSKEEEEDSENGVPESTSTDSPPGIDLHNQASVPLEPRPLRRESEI

| Compound | current change, negative = inhibition | IC50 |
| --- | --- | --- |
| C[C@@H](NS(C)(=O)=O)c1ccccc1 | inactive |  |
| C[C@@H](NS(=O)(=O)c1ccccc1Br)c1ccccc1 | inactive |  |
| Cc1ccc2nc(NCc3ccccc3)[nH]c2c1 | inactive |  |
| Cc1ccc(Nc2cc(C)nc3c(C)cccc23)cc1 | inactive |  |
| O=C(NCC1CCCCN1)c1cc(OCC(F)(F)F)ccc1OCC(F)(F)F (configuration not stated) | inactive |  |
| C[C@H](NS(=O)(=O)c1ccccc1Br)c1ccccc1 | inactive |  |
| C[C@H](NS(C)(=O)=O)c1ccccc1 | inactive |  |
| C[C@H](NS(=O)(=O)c1ccc(Br)cc1)c1ccccc1 |  | 21.3 µM |
| C[C@H](NS(=O)(=O)c1ccc(Cl)cc1)c1ccccc1 |  | 21.6 µM |
| C[C@H](NS(=O)(=O)c1cccc(Br)c1)c1ccccc1 |  | 30.9 µM |
| Cc1noc(C)c1COC(=O)CCN1c2ccccc2Sc2ccccc21 | inactive |  |
| C[C@@H](NS(=O)(=O)c1cc(Cl)cc(Cl)c1O)c1ccccc1 | inactive |  |
| CC(O)CNCCCOc1cccc(Oc2ccccc2)c1 (configuration not stated) |  | 11.4 µM |
| c1ccc(CNc2c3ccccc3nc3ccccc23)cc1 | inactive |  |
| C[C@@H](NS(=O)(=O)c1ccccc1)c1ccccc1 | inactive |  |
| C[C@H](NS(=O)(=O)c1cc(Cl)cc(Cl)c1O)c1ccccc1 | inactive |  |
| Cc1ccc2nc(N3CCN(CCO)CC3)nc(-c3ccccc3)c2c1 | inactive |  |
| Cc1ccc(S(=O)(=O)N[C@H](C)c2ccccc2)cc1 | inactive |  |
| Cc1ccc(C)c(OCCCNCc2ccccc2)c1 |  | 20.5 µM |
| C[C@@H](NS(=O)(=O)c1ccc(Cl)cc1)c1ccccc1 | inactive |  |
| C[C@H](NS(=O)(=O)c1ccccc1)c1ccccc1 | inactive |  |
| C[C@@H](NS(=O)(=O)c1cccc(Br)c1)c1ccccc1 |  | 30.6 µM |
